Our source for the IC50 values is patent US20260250250A1, “3-(SULPHONYL OR SULFONIMIDOYL)PROP-2-EN-1-YL]-2-OXO-1,2-DIHYDROPYRIDINE-3-CARBOXAMIDE DERIVATIVES” (Flinder Therapeutics B.V., priority 2022, published 2026).

Bounds are passed on as bounds.

For assay [1], the target named is T1, human E3 ubiquitin-protein ligase RNF31 (HOIP) (Homo sapiens, UniProt Q96EP0).
T1 sequence (Q96EP0 695-1072 limits assumed): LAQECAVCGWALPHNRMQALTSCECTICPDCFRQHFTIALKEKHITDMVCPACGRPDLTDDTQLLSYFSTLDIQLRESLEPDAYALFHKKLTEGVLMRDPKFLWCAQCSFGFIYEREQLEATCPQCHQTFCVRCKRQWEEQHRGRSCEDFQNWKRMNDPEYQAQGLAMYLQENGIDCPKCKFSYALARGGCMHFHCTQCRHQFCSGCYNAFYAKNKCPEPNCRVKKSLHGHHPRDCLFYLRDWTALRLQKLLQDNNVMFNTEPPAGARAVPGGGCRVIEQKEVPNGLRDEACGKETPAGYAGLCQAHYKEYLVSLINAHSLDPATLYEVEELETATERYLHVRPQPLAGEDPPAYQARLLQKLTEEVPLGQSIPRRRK
Briefly: Cell-free HTRF-based HOIP inhibition assay. Format: biochemical. The essentials:
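Recombinant human HOIP fragment (E. coli) preincubated with compounds (100-0.005 μM, 1% DMSO) and E1 for 1 h at 25° C. E2 and substrates then added; reaction 2.5 h at 25° C. HTRF read-out, excitation 337 nm, emissions 665/620 nm.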
(In general: In TR-FRET formats the signal depends on donor and acceptor labels being close together.)

A further assay relates to NF-κB signaling pathway. Kind of assay: Cell-based dual luciferase NF-κB reporter assay (HEK293 cells, TNF stimulated). The note with it: Homo sapiens, HEK293. The essentials: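 HEK293 cells transfected with Firefly luciferase and NF-κB-response-element NanoLuc plasmids; compounds at 100–0.005 µM in 1% DMSO. Cells stimulated with 2.5 ng/mL TNF 30 min after compound addition. Firefly and NanoLuc activities read after 6 h by Nano-Glo dual-luciferase detection.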

Assay [2] deals with bladder carcinoma RT4 cell line. Kind of assay: TNF-α-induced cytotoxicity assay (CellTiter-Glo viability). Format: cell-based. The note with it: Homo sapiens, RT-4, 72 h. The essentials:
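RT4 bladder carcinoma cells, 1000 per well, stimulated with 1.25 ng/mL TNFα together with compound for 72 h at 37° C., 5% CO2. Viability read by CellTiter-Glo luminescence, proportional to cellular ATP, as a measure of HOIP-dependent cytotoxicity.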
(In general: In ATP-based viability assays light output follows the ATP content of the culture.)

Consider `COc1ccc(S(=N)(=O)/C=C/CNC(=O)c2cc3c([nH]c2=O)CCN(C(=O)OCCF)C3)cc1F` (stereo not drawn) [Example 180, 2-fluoroethyl 3-{[(2E)-3-[(3-fluoro-4-methoxyphenyl)(imino)oxo-λ^6-sulfanyl]prop-2-en-1-yl]carbamoyl}-2-oxo-1,2,5,6,7,8-hexahydro-1,6-naphthyridine-6-carboxylate], for which the IC50 (as a rule, the concentration at which inhibition is half-maximal) in assay [1] was ≤ 0.1 µM; with NF-κB signaling pathway, ≤ 10 µM; in assay [2], ≤ 10 µM.
For `N=S(=O)(/C=C/CNC(=O)c1cc2c([nH]c1=O)CCN(C(=O)OCCF)C2)c1ccccc1` (stereo not drawn) [Example 181, 2-fluoroethyl 3-{[(2E)-3-[imino(oxo)phenyl-λ^6-sulfanyl]prop-2-en-1-yl]carbamoyl}-2-oxo-1,2,5,6,7,8-hexahydro-1,6-naphthyridine-6-carboxylate], the IC50 in assay [1] was ≤ 1 µM; with NF-κB signaling pathway, ≤ 100 µM; in assay [2], ≤ 10 µM.
The matching figures for `N=S(=O)(/C=C/CNC(=O)c1cc2c([nH]c1=O)CCN(C(=O)OCC(F)F)C2)c1ccccc1` (stereo not drawn) [Example 182, 2,2-difluoroethyl 3-{[(2E)-3-[imino(oxo)phenyl-λ^6-sulfanyl]prop-2-en-1-yl]carbamoyl}-2-oxo-1,2,5,6,7,8-hexahydro-1,6-naphthyridine-6-carboxylate]: ≤ 1 µM, ≤ 100 µM and ≤ 10 µM.
